Test results reported in patent US20230324382A1, “ANTIPHOSPHOLIPID ANTIBODIES FOR THE DIAGNOSIS OF LYME DISEASE” (Trustees of Tufts College, priority 2022, published 2023).

Key:
E. coli = assay: Incorporation of NBD-PC, other species; assay type: cell-based, Escherichia coli MG1655; details: 25 μM NBD-PC, 4 hours
Procedure: (§1) Cells were grown to a stationary phase (5 days) in BSK and then pelleted (5 minutes at 3220 g), washed once in an equal volume of PBS, and resuspended in an equal volume of dBSK. The cell suspension (1 mL) was added to nitrobenzoxadiazole-labeled (NBD-labeled) phospholipids (Avanti) to 25 μM. At hourly intervals, the cells were pelleted (5 minutes at 18,800 g), washed 3 times in 1 mL PBS, and resuspended in 100 μL PBS. The suspensions were transferred onto clear-bottomed, opaque 96-well plates (Corning), and fluorescence was recorded at excitation 460 nm/emission 540 nm (Ex460/Em540). Staphylococcus aureus 502a and Escherichia coli MG1655 were grown overnight in tryptic soy broth (TSB): tryptone (17.0 g/L), soytone (3.0), glucose (2.5), sodium chloride (5.0), and dipotassium phosphate (2.5). Incorporation of NBD-phospholipids was carried out in TSB, with subsequent washing and measurement as above.
(§2) After fluorescence measurements, 5 μL cell suspensions were spotted onto glass slides and fixed with 5 μL ProLong Gold (Thermo Fisher Scientific) with DAPI. […] For all 3 bacterial species imaged, the laser power was calibrated such that minimal autofluorescence was detected in unlabeled cells prior to imaging of the labeled cells.

S. aureus = assay: Incorporation of NBD-PC, other species; assay type: cell-based, Staphylococcus aureus 502a; details: 25 μM NBD-PC, 4 hours
Procedure: as §1, §2

B. burgdorferi = assay: Retention of NBD-PC in the membrane after transfer to rich medium; assay type: cell-based, Borrelia burgdorferi
From the text: FIG. 12 is a graph illustrating that phospholipids are retained in the membrane in the absence of an environmental source. B. burgdorferi was labelled with NBD-PC in lipid-depleted dBSK medium for four hours, washed, and resuspended in rich medium. […] Points are the mean of three biological replicates, with error bars the standard deviation.
This is indicative of nonspecific uptake and is consistent with a model of random diffusion into the membrane. Fluorescence was detectable for up to 4 days after the initial labeling, with a half-life of approximately 1 day (FIG. 12).

Substance: NBD-PC
- entry of fluorescent phospholipid into membranes (E. coli): did not enter the membranes
- entry of fluorescent phospholipid into membranes (S. aureus): did not enter the membranes
- fluorescence intensity as % of D0 (B. burgdorferi; day 1): 56%
- fluorescence intensity as % of D0 (B. burgdorferi; day 4): ~7%
